Results on five compounds are retold here after patent publication US6013665A, “Method for enhancing the absorption and transport of lipid soluble compounds using structured glycerides” (Abbott Laboratories, priority 1997, dated 2000).

For series [1] the following is noted: in vivo; cited from earlier work.
For series [2] the following is noted: in vivo; cited from earlier work. This is another data set of the same source.
For series [3] the following is noted: cited from earlier work.
Details of series [4]: species or system Male Sprague Dawley rats. The conditions noted are these: rat, in vivo. On the procedure:
(§1) The results set forth in FIGS. 1-4 are statistically significant at p<0.01 (see *). A two way analysis of variance model was employed for each treatment, lipid type and their interaction effects in the model were used to compare the area under each curve. Models were extended to included contrast statements comparing the physical mix and the structured triglyceride within each treatment group.
(§2) This experiment was conducted to determine if a structured glyceride consisting of a co-randomized MCT/fish oil would enhance the absorption of lipophilic compounds such as vitamin E (tocopherol) and retinol (vitamin A) using a lymph fistula rat model based upon a procedure described by Fujimoto et al., "Effect of Ischemia-Reperfusion on Lipid Digestion and Absorption in Rat Intestine", Am. J. Physiol., 260: G595-G602 (1991), the entire teaching of which is hereby incorporated by reference. This model was designed to represent fat absorption mode of the healthy intestinal tract (i.e., not compromised through disease or ischemic event). The lymph fistula rat model is extremely accurate in measuring and quantitating lipid absorption.
(§3) The physical mix (Part A)and structured triglyceride component (Part B) of Example 1 were used. […].
(§4) Male Sprague Dawley rats weighing between 280 and 330 grams were all fed a normal Purina Rat Chow for one week. Rats were fasted overnight prior to surgery and under anesthesia, a laparotomy was performed, the intestinal lymph duct was cannulated according to the procedure of Tso et al., "The Absorption of Lipid and Lipoprotein Synthesis", Lipid Research Methodology, Chapter 5: 191-216 (1984) Alan R. Liss, Inc., N.Y., N.Y, the entire teaching of which is hereby incorportated by reference. […] A silicon infusion tube (1.6 mm OD) was placed in the stomach for infusion of saline, structured lipid/lipophilic compound or emulsified physical mix/lipophilic compound. The fundic incision was closed by a purse string suture. The animals were allowed to recover for 24 hours before experimental oil/lipophilic compound infusion began.
(§5) Animals were randomly assigned to two groups in this non-injury model. […].
(§6) Lymph was collected in pre-cooled tubes beginning hourly for eight (8) hours after initiation of lipid infusion. At the end of the lipid infusion, the animals were sacrificed by exsanguination.
(§7) Radioactivity was measured in an aqueous miscible scintillant (Poly-Fluor, Packard, Downers Grove, Ill.). Samples were counted for 10 minutes in a liquid scintillation spectrophotometer (LKB Model 1209, Pharmacia, Inc.). Samples were corrected for quenching by reference to a series of ^14 C and ^3 H standards that were progressively quenched.
Lymph lipids were extracted and the methyl ester derivatives of the fatty acids were analyzed using a Hewlett Packard Gas Chromatograph, Model 5890A with a capillary column packed with 10% SP-2330 on 80/100 Supelcoport (Supelco, Inc., Bellefonte, Pa.).

The conditions of series [5]: cited from earlier work. This is another data set of the same source.
For series [6] the following is noted: rat, in vivo; cited from earlier work.
For series [7] the following is noted: rat, in vivo. How it is done:
as §1, §2, §3, §4, §5, §6, §7
This experiment was conducted in a manner similar to Example 2 except that the ischemic/reperfusion injury model was used. This model was used to simulate the lipid malabsorption conditions associated with diseases such as Short Bowel Syndrome, Crohn's disease and the like. Animals were divided into two groups and given the physical mix (Group A) or the structured triglyceride component (Group B) of Example 2.

Like-named read-outs stand apart in the source and are kept apart here.

Regarding α-tocopherol, in series [1], the “intestinal absorption of vitamin E with MCT” value is recorded as “enhancing effect of MCT on intestinal absorption of vitamin E”. The “α-tocopherol absorption by rat small intestine with polyunsaturated fatty acids in bile salt micelles” value in series [2] was “depress α-tocopherol absorption”. For the same compound, in series [3] (rat, in vivo), the “transport of vitamin E into lymph, phosphatidylcholine vs triglyceride infusion” value is listed as “significantly reduced”. For the same compound, in series [4], the “higher lymph output of the lipophilic compound with structured triglyceride compared to the corresponding physical mix” value is ≥ 30%; the “lymph tocopherol and retinol output with structured glyceride component versus physical mix” value is “increased rapidly and maintained a significantly higher output”; the “lymphatic tocopherol absorption, structured glyceride component vs physical mix (FIG. 2)” value is listed as “enhances the lymphatic absorption of tocopherol over the entire 8 hour study period”. The “absorption into the lymphatic system from an emulsion” value in series [5] (rat, in vivo) was “poorly absorbed from the emulsion”. Besides, in series [6], the “gastrointestinal absorption of lecithin-dispersed aqueous preparations of vitamin E with MCT” value was “significantly enhanced the absorption” and the “lymphatic absorption of vitamin E from lecithin-dispersed aqueous preparations” value is recorded as “increase the lymphatic absorption of vitamin E”. For the same compound, in series [7], the “higher lymph output of the lipophilic compound with structured triglyceride component compared to the corresponding physical mix” value is on record as ≥ 30%; the “lymphatic tocopherol absorption, structured triglyceride vs physical mix, after about 2 hours (FIG. 4)” value was “significantly enhanced level of lymphatic tocopherol absorption”; the “tocopherol absorption, structured triglyceride component vs physical mix, initial 2 hour period (FIG. 4)” value was “essentially equal”.
Consider `CCCCCCCC/C=C\CCCCCCCC(=O)OCC(COC(=O)CCCCCCC/C=C\CCCCCCCC)OC(=O)CCCCCCC/C=C\CCCCCCCC` [triolein], for which the “amount of lipid transported to the lymph” value in series [3] (lymph fistula rat, same amount of fatty acid infused as triolein or phosphatidylcholine with vitamin E) was “similar”.
On to phosphatidylcholine, for which, in series [3] (rat, in vivo), the “amount of lipid transported to the lymph” value is given as “similar”.
Regarding `CC1=C(/C=C/C(C)=C/C=C/C(C)=C/CO)C(C)(C)CCC1` [retinol], in series [4], the “lymph tocopherol and retinol output with structured glyceride component versus physical mix” value was “increased rapidly and maintained a significantly higher output”; the “lymphatic retinol absorption, structured triglyceride component vs physical mix (FIG. 1)” value is recorded as “increased the lymphatic absorption of retinol over the entire 8 hour study period”. Besides, in series [7], the “amount of retinol to the lymphatic circulation, structured triglyceride component vs physical mixture, end of study (FIG. 3)” value is on record as “more than twice the amount”; the “lymphatic retinol absorption, structured triglyceride component vs physical mixture, initial 3 hour period (FIG. 3)” value is “about equal”; the “retinol absorption, structured triglyceride component over physical mix, after about 3 hours (FIG. 3)” value is recorded as “enhancement in the retinol absorption over the physical mix”.
Take `CCCCCCCC/C=C\CCCCCCCC(=O)O` [oleic acid]: the “absorption into the lymphatic system from an emulsion” value in series [5] (rats with bile diversion, emulsion) is “well absorbed into the lymphatic system”.
